The nature of data set [1]: Cytotoxicity against NF2-deficient mouse MEF cells assessed as cell survival incubated for 24 hrs by alamarblue staining based analysis. Type of data set: toxicity. Background: Resazurin is reduced to fluorescent resorufin, in cell work by metabolically active cells.
In data set [2] the test system is B16-F10. Put plainly: Cytotoxicity against mouse B16-F10 cells assessed as cell survival incubated for 24 hrs by alamarblue staining based analysis. Type of data set: functional. The conditions noted are these: B16-F10, 24 h.
For a further data set, the system named is MCF7. Put plainly: Cytotoxicity against human MCF7 cells assessed as inhibition of cell growth. It is filed as functional, cell-based.
In the next data set the test system is JAR. Put plainly: Cytotoxicity against human JAR cells assessed as inhibition of cell growth. Type of data set: functional, cell-based.
Data set [3] has as its system B16-F10. Description: Antitumor activity against metastatic mouse B16-F10 cells implanted in C57BL/6 mouse assessed as number of lung metastases at 9 to 9.5 mg/kg, ip administered for 22 days by histological analysis (reference value: 223 +/- 12). It is filed as functional. The settings on record: dose 9-9.5 mg/kg, time 22 day.
Data set [4] relates to B16-F10. Put plainly: Antitumor activity against metastatic mouse B16-F10 cells implanted in C57BL/6 mouse assessed as number of lung metastases at 4.6 to 42 mg/kg, ip administered every 3rd day for 22 days measured on day 23 by histological analysis (reference value: 223 +/- 12). Type of data set: functional. The settings on record: dose 4.6-42 mg/kg, time 23 day.
Data set [5] deals with B16-F10. Put plainly: Antitumor activity against metastatic mouse B16-F10 cells implanted in C57BL/6 mouse assessed as number of lung metastases at 9 to 9.5 mg/kg, ip administered for 15 days by histological analysis (reference value: 175 +/- 10). It is filed as functional. The settings on record: dose 9-9.5 mg/kg, time 15 day.
For data set [6], the system named is B16-F10. Put plainly: Antitumor activity against metastatic mouse B16-F10 cells implanted in C57BL/6 mouse assessed as number of lung metastases at 9 to 9.5 mg/kg, ip administered for 19 days by histological analysis (reference value: 190 +/- 9). It is filed as functional. The conditions noted are these: dose 9-9.5 mg/kg, time 19 day.
For data set [7], the system named is B16-F10. Description: Antitumor activity against metastatic mouse B16-F10 cells implanted in C57BL/6 mouse assessed as number of lung metastases at 9 to 9.5 mg/kg, ip administered for 12 days by histological analysis (reference value: 150 +/- 7). The settings on record: dose 9-9.5 mg/kg, time 12 day. Type of data set: functional.
The next data set concerns U-87 MG. Put plainly: Cytotoxicity against human U-87 MG cells assessed as inhibition of cell growth. It is filed as functional, cell-based, U-87MG ATCC.
The next data set has as its system HCT-116. Description: Cytotoxicity against human HCT-116 cells assessed as inhibition of cell growth. It is filed as functional, cell-based.

A word on the IC50: it is the concentration needed to halve the response being measured. As to `CCOC(=O)c1c(N/C(=C\C(=O)c2ccc(C)cc2)C(O)=C(C#N)C#N)sc2c1CCCCC2`, in data set [1], the IC50 at 24 h was above 100 µM. The IC50 with B16-F10 [2] was above 100 µM.
On to `CCOC(=O)C1=C(N)N(c2sc3c(c2C(=O)OCC)CCCCC3)/C(=C/C(=O)c2ccc(C)cc2)C1=O`, for which, in [1], the IC50 at 24 h was above 100 µM. Besides, in the data set with B16-F10 [2], the IC50 amounted to 25.2 µM.
For `CCOC(=O)/C(C#N)=C(O)/C(=C/C(=O)c1ccc(C)cc1)Nc1sc2c(c1C(=O)OCC)CCCC2` the same measures were above 100 µM and 28.9 µM.
On to `CCOC(=O)c1c(NC(=C\C(=O)c2ccccc2)/C(O)=C(\C#N)C(N)=O)sc2c1CCCC2`, for which the IC50 at 24 h in data set [1] was above 100 µM. For the same molecule, the IC50 with B16-F10 [2] is 14.1 µM.
Take `CCOC(=O)C1=C2NC(=O)c3c(sc4c3CCCC4)N2/C(=C/C(=O)c2ccc(OC)cc2OC)C1=O`: the IC50 at 24 h in data set [1] was above 100 µM. The IC50 in the data set on B16-F10 [2] was determined as 32.6 µM.
Regarding `CCOC(=O)C1=C(N)N(c2sc3c(c2C(=O)OCC)CCCC3)/C(=C/C(=O)c2ccc(C)cc2)C1=O`, the IC50 at 24 h in [1] is above 100 µM. For the same molecule, the IC50 in the data set with B16-F10 [2] stood at 68.4 µM.
In the case of `NC(=O)C1=C2NC(=O)c3c(sc4c3CCCCC4)N2/C(=C/C(=O)c2ccccc2)C1=O`, in data set [1], the IC50 at 24 h was above 100 µM. For the same molecule, the IC50 in the data set with B16-F10 [2] turned out to be 24.5 µM.
In the case of `CCOC(=O)C1=C(N)N(c2sc3c(c2C(=O)OCC)CCCC3)/C(=C/C(=O)c2ccc(OC)cc2)C1=O`, the IC50 at 24 h in data set [1] is above 100 µM. Moreover, the IC50 with B16-F10 [2] is above 100 µM.
On to `CCOC(=O)C1=C(N)N(c2sc(C)c(C)c2C(=O)OCC)/C(=C/C(=O)c2ccccc2)C1=O`, for which the IC50 at 24 h in data set [1] was above 100 µM. Further, the IC50 in the data set on B16-F10 [2] turned out to be 41.2 µM.
For `CCOC(=O)/C(C#N)=C(O)/C(=C/C(=O)c1ccc(C)cc1)Nc1sc(C)c(C)c1C(=O)OCC` the same measures were above 100 µM and 44.2 µM.
As for `CCOC(=O)/C(C#N)=C(O)/C(=C/C(=O)c1ccc(OC)cc1)Nc1sc2c(c1C(=O)OCC)CCCC2`, the IC50 at 24 h in data set [1] was above 100 µM. Further, the IC50 in the data set with B16-F10 [2] was determined as 19.7 µM.
For `CCOC(=O)c1c(N2C(N)=C(C(N)=O)C(=O)/C2=C\C(=O)c2ccc(OC)cc2OC)sc2c1CCCC2` the same measures were above 100 µM and 48.2 µM.
As for `CCOC(=O)c1c(N2C(N)=C(C#N)C(=O)/C2=C\C(=O)c2ccc(OC)cc2)sc2c1CCCCC2`, the IC50 at 24 h in data set [1] was above 100 µM. Further, the IC50 with B16-F10 [2] turned out to be 9.1 µM.
Turning to `CCOC(=O)c1c(N2C(N)=C(C(N)=O)C(=O)/C2=C\C(=O)c2ccccc2)sc2c1CCCCC2`, the IC50 at 24 h in data set [1] was above 100 µM. Further, the IC50 in the data set on B16-F10 [2] worked out at 22.2 µM.
For `CCOC(=O)C1=C(N)N(c2sc3c(c2C(=O)OCC)CCCC3)/C(=C/C(=O)c2cccs2)C1=O` the same measures were above 100 µM and 57 µM.
For `COc1ccc(C(=O)/C=C2\C(=O)C(C(N)=O)=C3NC(=O)c4c(sc5c4CCCC5)N32)cc1` the same measures were above 100 µM and 42.6 µM.
Turning to `CCOC(=O)C1=C(Nc2ccccc2)S/C(=C\C2CCCCC2)C1=O`, the figures for the IC50 in the data set on MCF7 and in the data set with JAR were 45.3 µM and 95.2 µM, respectively.
`CCOC(=O)c1c(N2C(N)=C(C(N)=O)C(=O)/C2=C\C(=O)c2ccc(OC)cc2)sc2c1CCCC2`: the IC50 at 24 h in data set [1] is above 100 µM. Further, the IC50 in the data set on B16-F10 [2] was found to be 48.1 µM.
As to `CCOC(=O)C1=C(N)N(c2sc(C)c(C)c2C(=O)OCC)/C(=C/C(=O)c2ccc(Cl)cc2)C1=O`, in [1], the IC50 at 24 h was above 100 µM. Moreover, the half-maximal inhibitory concentration (IC50) in the data set on B16-F10 [2] was 57.3 µM.
With `CCOC(=O)/C(C#N)=C(O)/C(=C/C(=O)c1ccccc1)Nc1sc2c(c1C(=O)OCC)CCCC2`, in [1], the IC50 at 24 h is above 100 µM. In the data set on B16-F10 [2], the IC50 was 38.6 µM.
For the molecule `CC(=O)O[C@H]1C(=O)[C@@]2(C)[C@H]([C@H](OC(=O)c3ccccc3)[C@]3(O)C[C@H](OC(=O)[C@H](O)[C@@H](NC(=O)c4ccccc4)c4ccccc4)C(C)=C1C3(C)C)[C@]1(OC(C)=O)CO[C@@H]1C[C@@H]2O` [PACLITAXEL], the Activity was determined as 80 in the data set on B16-F10 [3]; 50 in the data set on B16-F10 [4]; 125 with B16-F10 [5]; 97 in the data set on B16-F10 [6]; 158 in the data set with B16-F10 [7].
Consider `NC(=O)C1=C2NC(=O)c3c(sc4c3CCCC4)N2/C(=C/C(=O)c2ccccc2)C1=O`, for which the IC50 at 24 h in data set [1] was above 100 µM. The IC50 with B16-F10 [2] turned out to be 56.9 µM.
For `CCOC(=O)c1c(N2C(N)=C(C(N)=O)C(=O)/C2=C\C(=O)c2ccc(OCC)cc2)sc2c1CCCC2` the same measures were above 100 µM and above 100 µM.
For the molecule `CCOC(=O)c1c(N/C(=C\C(=O)c2ccc(OC)cc2)C(O)=C(C#N)C#N)sc2c1CCCCC2`, the IC50 at 24 h in data set [1] is above 100 µM. The IC50 with B16-F10 [2] is above 100 µM.
As to `CCOC(=O)c1c(N)sc(C(=O)Nc2ccccc2)c1-c1ccccc1`, in the data set on U-87 MG, the IC50 came out at 7.4 µM.
`CCOC(=O)C1=C2NC(=O)c3c(sc4c3CCCC4)N2/C(=C/C(=O)c2cccs2)C1=O`: the IC50 at 24 h in data set [1] was above 100 µM. Moreover, the IC50 in the data set on B16-F10 [2] stood at 58.6 µM.
Taken in the same sequence, the figures for `Cc1ccc(C(=O)/C=C2\C(=O)C(C#N)=C3NC(=O)c4c(sc5c4CCCCC5)N32)cc1` were above 100 µM and 8.8 µM.
`CCOC(=O)c1c(N/C(=C\C(=O)c2ccc(OC)cc2)C(O)=C(C#N)C#N)sc2c1CCCC2`: the IC50 at 24 h in [1] was above 100 µM. Further, the IC50 in the data set with B16-F10 [2] was above 100 µM.
Turning to `N#CC1=C2NC(=O)c3c(sc4c3CCCCCC4)N2/C(=C/C(=O)c2ccccc2)C1=O`, the IC50 at 24 h in [1] was above 100 µM. Besides, in the data set on B16-F10 [2], the concentration for half-maximal inhibition (IC50) stood at 12.6 µM.
Taken in the same sequence, the figures for `CCOC(=O)c1c(NC(=C\C(=O)c2ccc(C)cc2)/C(O)=C(\C#N)C(N)=O)sc2c1CCCC2` were above 100 µM and 11.9 µM.
For the molecule `CCOC(=O)C1=C2NC(=O)c3c(sc4c3CCCC4)N2/C(=C/C(=O)c2ccccc2)C1=O`, the IC50 at 24 h in data set [1] is above 100 µM. Besides, in the data set with B16-F10 [2], the IC50 stood at 46.9 µM.
Taken in the same sequence, the figures for `CCOC(=O)C1=C2NC(=O)c3c(sc4c3CCCC4)N2/C(=C/C(=O)c2ccc(Cl)cc2)C1=O` were above 100 µM and 54.4 µM.
For `CCOC(=O)c1c(NC(=C\C(=O)c2ccc(C)cc2)/C(O)=C(\C#N)C(N)=O)sc(C)c1C` the same measures were above 100 µM and 17.9 µM.
For `CCOC(=O)C1=C2NC(=O)c3c(sc(C)c3C)N2/C(=C/C(=O)c2ccc(C)cc2)C1=O` the same measures were above 100 µM and 43.6 µM.
With `O=C(CSc1nc2sc3c(c2c(=O)n1Cc1ccccc1)CCCC3)NNC(=S)Nc1ccccc1`, in the data set with HCT-116, the IC50 was found to be 5.33 µM.
With `CCOC(=O)C1=C2NC(=O)c3c(sc4c3CCCCCC4)N2/C(=C/C(=O)c2ccccc2)C1=O`, in data set [1], the IC50 at 24 h was above 100 µM. Besides, in the data set with B16-F10 [2], the IC50 was 23.6 µM.
In the case of `CCOC(=O)c1c(N2C(N)=C(C(N)=O)C(=O)/C2=C\C(=O)c2ccc(Cl)cc2)sc2c1CCCC2`, the IC50 at 24 h in [1] is above 100 µM. Moreover, the IC50 in the data set with B16-F10 [2] came to 56.5 µM.
Taken in the same sequence, the figures for `CCOC(=O)C1=C2NC(=O)c3c(sc4c3CCCC4)N2/C(=C/C(=O)c2ccc(C)cc2)C1=O` were above 100 µM and 40.5 µM.
For `CCOC(=O)C1=C(N)N(c2sc(C)c(C)c2C(=O)OCC)/C(=C/C(=O)c2ccc(OC)cc2)C1=O` the same measures were above 100 µM and 41.4 µM.
Taken in the same sequence, the figures for `CCOC(=O)C1=C(N)N(c2sc3c(c2C(=O)OCC)CCCC3)/C(=C/C(=O)c2ccc(OC)cc2OC)C1=O` were above 100 µM and 54.1 µM.
On to `CCOC(=O)C1=C2NC(=O)c3c(sc(C)c3C)N2/C(=C/C(=O)c2ccc(Cl)cc2)C1=O`, for which the IC50 at 24 h in data set [1] was above 100 µM. Further, the IC50 with B16-F10 [2] turned out to be 64.6 µM.
In the case of `CCOC(=O)c1c(N2C(N)=C(C(N)=O)C(=O)/C2=C\C(=O)c2ccccc2)sc2c1CCCC2`, the IC50 at 24 h in [1] is above 100 µM. Further, in the data set with B16-F10 [2], the IC50 is 52.1 µM.
As to `CCOC(=O)C1=C(N)N(c2sc3c(c2C(=O)OCC)CCCCC3)/C(=C/C(=O)c2ccccc2)C1=O`, the IC50 at 24 h in data set [1] is above 100 µM. The IC50 in the data set with B16-F10 [2] was determined as 36.2 µM.
With `CCOC(=O)C1=C(N)N(c2sc3c(c2C(=O)OCC)CCCC3)/C(=C/C(=O)c2ccccc2)C1=O`, the IC50 at 24 h in data set [1] was above 100 µM. Further, the IC50 with B16-F10 [2] was 46.7 µM.

Values taken from ChEMBL document CHEMBL5325431, “Synthesis of thieno[3,2-e]pyrrolo[1,2-a]pyrimidine derivatives and their precursors containing 2-aminothiophenes fragments as anticancer agents for therapy of pulmonary metastatic melanoma” (Eur J Med Chem, 2023).
